≈ marks a conversion by molar mass, not a printed value. Like-named read-outs stand apart in the source and are kept apart here.
Key:
[1] = test system: HL-60 cells; experiment: cancer cell differentiation (Wright-Giemsa stain); format: cell-based, human; details: control around 10%
Experimental: (2) To HL-60 cells was added 10^-4 μg/ml of the cyclopentenone and an incubation by the same manner as in Example 15-(1) was conducted for three days. […] The result was that the differentiated cells were around 10% in the control where no cyclopentenone was added while, in the fractions to which the cyclopentenone was added, 50% or more cells were differentiated to monocyte- or to macrophage-like cells.
The result was that the differentiated cells were around 10% in the control where no cyclopentenone was added while, in the fraction to which 0.005 μg/ml of the cyclopentenone was added, 25% or more cells were differentiated to mature bone marrow cells.

[2] = test system: mice; details: oral, 100 mg/kg
[3] = test system: Bacillus subtilis (IFO 3034); experiment: growth turbidity, microorganism (17); format: cell-based; details: 8 h, control 267
Text: They were testing microorganism (13): Escherichia coli HB101 (ATCC 33694); testing microorganism (14): Salmonella typhimurium LT-2 (ATCC 27106); testing microorganism (15): Pseudomonas aeruginosa (IFO 3080); testing microorganism (16): Staphylococcus aureus 3A (NCTC 8319); testing microorganism (17): Bacillus subtilis (IFO 3034); and testing microorganism (18): Streptococcus mutans (GS5; stored at National Institute of Health).
The testing microorganisms were subjected to a seed culture overnight in an L-broth (1% tryptone, 0.5% yeast extract and […]; pH 7.0). The seed culture (5 μl) was inoculated to a medium to which 25-200 μg/ml of cyclopentenone was added to 5 ml of L-both and also to a medium to which nothing was added and a shake incubation was conducted at 37° C. to measure the growth. At the initiation of the incubation and also at eight hours thereafter, turbidity of the culture was measured using a Fuji Digital Turbidimeter (sold from Fuji Kogyo KK; manufactured by Akiyama Denki Seisakusho) under the condition that the adjusted scale was 82.3 and the growth of the tested microorganism was measured from the value (growth turbidity) obtained by deducting the turbidity at the initiation of incubation from that after eight hours. Incidentally, in the case of the testing microorganism (18), a brain heart infusion was used instead of L-broth.

[4] = test system: Meth A cells; experiment: anticancer action to solid cancer, Meth A; format: in vivo, female BALB/c mice; details: 5 mg/kg/day s.c., five days
Experimental: The cyclopentenone mentioned in Example 3-(1) was diluted with a physiological saline solution to certain concentrations and the following tests were conducted.

[5] = test system: Sarcoma-180; experiment: life-prolonging effect, subcutaneous Sarcoma-180; format: in vivo, female mice of ICR strain; details: about 80 mg/kg/day in drinking water, 40th day; control two out of eight
Experimental: (2) Sixteen female mice of ICR strain of six weeks age (body weight: about 26 g) were used. Sarcoma-180 (5.5×10^6 cells/mouse) was subcutaneously injected into abdomen whereupon a control group (8 mice) and a group administered with the cyclopentenone (8 mice) were made.
The cyclopentenone was diluted with tap water and freely given to the cyclopentenone-administered group to make the dose of the cyclopentenone about 80 mg/kg/day using a water-supplying bottle. Tap water was similarly given to the control group. In both groups, feed was freely given during the course of the experiment.

[6] = test system: Legionella pneumophila (isolated from a washing of human bronchus); format: cell-based; details: 12 ppm, common logarithm
[7] = test system: Lactobacillus homohiochii (IFO 13120); experiment: antibacterial activity to hiochi bacteria, microorganism C; format: cell-based; details: five days; for Growth Turbidity (OD600): control 1.61
Experimental: The testing microorganism was subjected to a stationary incubation for five days in an SI medium (Japan Brewery Association) containing 10% of ethanol to give a seed microorganism. The seed microorganism (0.1%) was added to 100 ml of 10% ethanol-containing SI medium to which the cyclopentenone was added in an amount of 0, 25, 50, 75 or 100 μg/ml (in terms of final concentration), then a stationary incubation was conducted for five days and the turbidity was measured. In measuring the turbidity, the value of OD600 was measured using an absorbance meter. A value of OD600 of the medium to which no testing microorganism was inoculated was deducted from the above value and this (growth turbidity) was used for the growth of the tested microorganism.
The tested microorganisms were as follows. Thus, Lactobacillus fructivorans (IFO 13118) (testing microorganism A), Lactobacillus fructivorans (JCM 1198) (testing microorganism B) and Lactobacillus homohiochii (IFO 13120) (testing microorganism C) as true hiochi bacteria while Lactobacillus rhamnosus (IFO 3532) (testing microorganism D) was used as hiochi lactobacteria.

[8] = test system: Aspergillus fumigatus TIMM 1776; experiment: antimicrobial activity to fungi; format: cell-based; details: high concentrations
[9] = test system: Helicobacter pylori strains NCTC 11637 (ATCC 43504), 206 and 3401; experiment: MIC against Helicobacter pylori strains; format: cell-based; details: pH 6.0, 37° C., 3-4 days, all strains tested, read-out: MIC (90% or more inhibition)
Experimental: (4) As to Helicobacter pylori strains, a standard strain NCTC 11637 (ATCC 43504) and clinically isolated strains from human stomach (206 and 3401; both stored at Department of Bacteriology, Hyogo Medical College) were used. Each strain was subjected to a shake incubation at 37° C. under a slightly aerophilic condition using an Aneropack Campiro (manufactured by Mitsubishi Gas Chemical) in a Brucella Broth Medium (manufactured by BBL) containing 7% of horse serum (manufactured by Bio Whittaker). The microorganism in a logarithmic growth phase was diluted with a Brucella Broth and used for the test. A 24-well plate (manufacturedby Falcon) was used for the experiments. The cyclopentenone was charged at the rate of 0.1 ml (1,000 μg)/well, subjected to a two-step dilution using PBS and immobilized by adding 0.9 ml/well of a medium [a Brucella agar medium (pH 6.0) containing 7% of horse serum (manufactured by BBL)]. The Brucella agar medium was previously adjusted to pH 6.0 with HCl and was used for the experiments. Each microorganism was inoculated at the rate of about 10^4 /50 μl/well. […] The amount of a sample (μg/ml) showing 90% or more inhibition was defined as the MIC.

[10] = test system: Sarcoma-180; experiment: life-prolonging effect, intraperitoneal Sarcoma-180; format: in vivo, female mice of ICR strain; details: intraperitoneal tumor
[11] = test system: IMC; experiment: life-prolonging effect, IMC; format: in vivo, female mice of CDF1 strain; details: intraperitoneal tumor

In the case of O=C1C=CC(O)C1O (stereo not shown) [the cyclopentenone, 4,5-dihydroxy-2-cyclopenten-1-one], the “cells differentiated to mature bone marrow cells” value ([1]; 0.005 μg/ml, three or six days) is reported as at least 25%, the “cells differentiated to monocyte- or to macrophage-like cells” value ([1]; 10^-4 μg/ml, three days) is reported as at least 50% and the toxicity [2] is reported as “not show toxicity”. For the same compound, the “Growth Turbidity” value ([3]; 25 μg/ml) was 145, the “Growth Turbidity” value ([3]; 50 μg/ml) was 9 and the “Growth Turbidity” value ([3]; 100 μg/ml) was 0. For the same compound, the “Growth Turbidity” value ([3]; 200 μg/ml) was 0, the “Inhibiting Rate” value [4] was 100.0% and the “Tumor Weight (average ± SD)” value ([4]; two weeks, n=8, control 1.41 ± 0.55) was 0.00 ± 0.00 g. For the same compound, the “numbers of living mice (out of eight)” value [5] was “seven”, the “Numbers of Tested Microorganism Cells after Incubation” value ([6]; 16 h, 0 ppm 6.9) was 5.7 log10 CFU/ml and the “Numbers of Tested Microorganism Cells after Incubation” value ([6]; 96 h, 0 ppm 8.7) was 8.3 log10 CFU/ml. The “Growth Turbidity (OD600)” value ([7]; 25 μg/ml) was 0.32, the “Growth Turbidity (OD600)” value ([7]; 50 μg/ml) was 0.08 and the “Growth Turbidity (OD600)” value ([7]; 75 μg/ml) was 0. The MIC ([7]; IFO13120, 120 h, read-out: concentration completely inhibiting growth) was 75 µg/mL (≈ 657 µM), the antimicrobial activity [8] was “antimicrobial activity at high concentrations” and the MIC [9] was 32 µg/mL (≈ 280 µM). For the same compound, the “increase in life span” value [10] was 148%, the mean survival days ([10]; control 22.6 days) was 33.4 days and the “increase in life span” value [11] was 188%. It also gave a mean survival days ([11]; control 10.8 days) of 20.3 days.
